*1 amine or outer side, *2 acyl side, *3 side chain or, on linkers, in order; H or OH if unused. Where a SMILES comes first, the peptide text is derived from it. Bridges are numbered along the chain shown (N, C = ends). [ ]: non-standard residue; d: D form. ξ: configuration not given here. X2 = CCCCCCCCCCCC(CC(=O)[*:1])O[*:2]; ξAsp(3ξ-OH) = NC(C(=O)O)C(O)C(=O)O; X1 = O=C(C1C(O)CCN1[*:1])[*:2]
Tests used:
Blood levels in mice = format: in vivo
Method: Blood levels in mice were determined following an intravenous or intramuscular administration of Bu-2517. Blood samples were collected from orbital sinuses and assayed by the paper disc-agar diffusion method using S. lutea PCI 1001 as the test organism. […] Bu-2517 was not absorbed when administered orally. T1 TABLE 7-Blood Levels in Mice? -Blood levels (mcg/ml)? -intravenous dose? intramuscular dose? -Time after? 10? 30? 10? 30? 100? -administration? mg/kg? mg/kg? mg/kg? mg/kg? mg/kg? -1 min 70 224 ? --? --? --? -5 41 162 ? --? --? --? -10 33 131 ? 11 22 --? -15 --? --? --? --? 45 -20 23 68 13 32 --? -30 18 73 14 48 45 -45 18 64 14 41 --? -1 hr 14 50 13 36 47 -1.5 7.9 32 11 35 --? -2 5.6 23 8.9 28 --? -3 3.1 14 5.3 18 55 -5 --? --? <2.0 ? 8.9 --? -7 --? --? --? 3.8 23 -10 --? --? --? --? 15 -24 --? --? --? --? <0.3 -Half life (hr.) 0.81 0.87 1.6 1.8 3.7 -AUC* (mcg.hr/ml) 39 163 ? 40 137 ? 460 ? -

[1] = test system: aerobic gram-negative organisms; format: cell-based

Question: Which results are given for `CCCCCCCCCCCC1CC(=O)N2CCCC2C(=O)NC(CO)C(=O)N2CCCC2C(=O)NC(CCCNC(=N)N)C(=O)NC(C(O)C(=O)O)C(=O)NC(CO)C(=O)N2CCC(O)C2C(=O)NC(C(O)C(=O)O)C(=O)O1` (stereo not drawn) [Bu-2517] (PSPR[ξAsp(3ξ-OH)]S[X1][ξAsp(3ξ-OH)]; linker N-C via X2; configuration not given here)?
Answer: blood level after 7 hours (Blood levels in mice; intramuscular administration of 30 mg/kg): measurable blood level was still observed; AUC* (mcg.hr/ml), area under curve (Blood levels in mice; intramuscular dose 10 mg/kg): 40 µg·h/mL; Half life (Blood levels in mice; intramuscular dose 10 mg/kg): 1.6 h; Blood levels (Blood levels in mice; intramuscular dose 10 mg/kg, 10 min): 11 µg/mL; Blood levels (Blood levels in mice; intramuscular dose 10 mg/kg, 20 min): 13 µg/mL; Blood levels (Blood levels in mice; intramuscular dose 10 mg/kg, 30 min): 14 µg/mL; Blood levels (Blood levels in mice; intramuscular dose 10 mg/kg, 45 min): 14 µg/mL; Blood levels (Blood levels in mice; intramuscular dose 10 mg/kg, 1 hr): 13 µg/mL; Blood levels (Blood levels in mice; intramuscular dose 10 mg/kg, 1.5 hr): 11 µg/mL; Blood levels (Blood levels in mice; intramuscular dose 10 mg/kg, 2 hr): 8.9 µg/mL; Blood levels (Blood levels in mice; intramuscular dose 10 mg/kg, 3 hr): 5.3 µg/mL; Blood levels (Blood levels in mice; intramuscular dose 10 mg/kg, 5 hr): < 2.0 µg/mL; AUC* (mcg.hr/ml), area under curve (Blood levels in mice; intramuscular dose 30 mg/kg): 137 µg·h/mL; Half life (Blood levels in mice; intramuscular dose 30 mg/kg): 1.8 h; Blood levels (Blood levels in mice; intramuscular dose 30 mg/kg, 10 min): 22 µg/mL; Blood levels (Blood levels in mice; intramuscular dose 30 mg/kg, 20 min): 32 µg/mL; Blood levels (Blood levels in mice; intramuscular dose 30 mg/kg, 30 min): 48 µg/mL; Blood levels (Blood levels in mice; intramuscular dose 30 mg/kg, 45 min): 41 µg/mL; Blood levels (Blood levels in mice; intramuscular dose 30 mg/kg, 1 hr): 36 µg/mL; Blood levels (Blood levels in mice; intramuscular dose 30 mg/kg, 1.5 hr): 35 µg/mL; Blood levels (Blood levels in mice; intramuscular dose 30 mg/kg, 2 hr): 28 µg/mL; Blood levels (Blood levels in mice; intramuscular dose 30 mg/kg, 3 hr): 18 µg/mL; Blood levels (Blood levels in mice; intramuscular dose 30 mg/kg, 5 hr): 8.9 µg/mL; Blood levels (Blood levels in mice; intramuscular dose 30 mg/kg, 7 hr): 3.8 µg/mL; AUC* (mcg.hr/ml), area under curve (Blood levels in mice; intramuscular dose 100 mg/kg): 460 µg·h/mL; Half life (Blood levels in mice; intramuscular dose 100 mg/kg): 3.7 h; Blood levels (Blood levels in mice; intramuscular dose 100 mg/kg, 15 min): 45 µg/mL; Blood levels (Blood levels in mice; intramuscular dose 100 mg/kg, 30 min): 45 µg/mL; Blood levels (Blood levels in mice; intramuscular dose 100 mg/kg, 1 hr): 47 µg/mL; Blood levels (Blood levels in mice; intramuscular dose 100 mg/kg, 3 hr): 55 µg/mL; Blood levels (Blood levels in mice; intramuscular dose 100 mg/kg, 7 hr): 23 µg/mL; Blood levels (Blood levels in mice; intramuscular dose 100 mg/kg, 10 hr): 15 µg/mL; Blood levels (Blood levels in mice; intramuscular dose 100 mg/kg, 24 hr): < 0.3 µg/mL; AUC* (mcg.hr/ml), area under curve (Blood levels in mice; intravenous dose 10 mg/kg): 39 µg·h/mL; Half life (Blood levels in mice; intravenous dose 10 mg/kg): 0.81 h; Blood levels (Blood levels in mice; intravenous dose 10 mg/kg, 1 min after administration): 70 µg/mL; Blood levels (Blood levels in mice; intravenous dose 10 mg/kg, 5 min): 41 µg/mL; Blood levels (Blood levels in mice; intravenous dose 10 mg/kg, 10 min): 33 µg/mL; Blood levels (Blood levels in mice; intravenous dose 10 mg/kg, 20 min): 23 µg/mL; Blood levels (Blood levels in mice; intravenous dose 10 mg/kg, 30 min): 18 µg/mL; Blood levels (Blood levels in mice; intravenous dose 10 mg/kg, 45 min): 18 µg/mL; Blood levels (Blood levels in mice; intravenous dose 10 mg/kg, 1 hr): 14 µg/mL; Blood levels (Blood levels in mice; intravenous dose 10 mg/kg, 1.5 hr): 7.9 µg/mL; Blood levels (Blood levels in mice; intravenous dose 10 mg/kg, 2 hr): 5.6 µg/mL; Blood levels (Blood levels in mice; intravenous dose 10 mg/kg, 3 hr): 3.1 µg/mL; AUC* (mcg.hr/ml), area under curve (Blood levels in mice; intravenous dose 30 mg/kg): 163 µg·h/mL; Half life (Blood levels in mice; intravenous dose 30 mg/kg): 0.87 h; Blood levels (Blood levels in mice; intravenous dose 30 mg/kg, 1 min after administration): 224 µg/mL; Blood levels (Blood levels in mice; intravenous dose 30 mg/kg, 5 min): 162 µg/mL; Blood levels (Blood levels in mice; intravenous dose 30 mg/kg, 10 min): 131 µg/mL; Blood levels (Blood levels in mice; intravenous dose 30 mg/kg, 20 min): 68 µg/mL; Blood levels (Blood levels in mice; intravenous dose 30 mg/kg, 30 min): 73 µg/mL; Blood levels (Blood levels in mice; intravenous dose 30 mg/kg, 45 min): 64 µg/mL; Blood levels (Blood levels in mice; intravenous dose 30 mg/kg, 1 hr): 50 µg/mL; Blood levels (Blood levels in mice; intravenous dose 30 mg/kg, 1.5 hr): 32 µg/mL; Blood levels (Blood levels in mice; intravenous dose 30 mg/kg, 2 hr): 23 µg/mL; Blood levels (Blood levels in mice; intravenous dose 30 mg/kg, 3 hr): 14 µg/mL; absorption, parenterally (Blood levels in mice; intravenous or intramuscular administration): well absorbed; absorption when administered orally (Blood levels in mice; oral): not absorbed; activity against aerobic gram-negative organisms [1]: no activity
